The text below walks through data of ChEMBL document CHEMBL1201862, “PubChem BioAssay data set” (2004).

For orientation: IC50 means the point on the concentration scale where inhibition reaches its midpoint. A word on the AC50: it is the concentration at which the activity in the assay is half-maximal. In general, CC50 refers to the concentration at which the toxic effect on the cells reaches its halfway point.

The target of experiment [1] is Female germline-specific tumor suppressor gld-1 (Caenorhabditis elegans, UniProt Q17339). The experiment is described as follows: inhibitors of GLD-1 binding to TGE RNA, dose response, biochemical, fluorescence polarization, C. elegans (AID 2802). (Fluorescence polarisation rises when a labelled molecule tumbles more slowly, as on binding a larger partner.);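 note: fluorescence polarization of labeled TGE RNA bound by purified gld-1 protein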
For experiment [2], the target named is T1, Endoribonuclease toxin MazF (Escherichia coli K-12, UniProt P0AE70).
T1 sequence (P0AE70 whole entry): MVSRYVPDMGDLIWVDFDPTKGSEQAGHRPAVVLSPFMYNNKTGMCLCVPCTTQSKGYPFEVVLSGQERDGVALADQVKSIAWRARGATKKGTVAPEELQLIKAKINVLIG
Description: MazF toxin RNase activators, dose response, biochemical, fluorescence, single-stranded RNA substrate, uHTS hits (AID 588481). It is filed as functional.

Experiment [3] has as its target T1, Endoribonuclease toxin MazF. The experiment is described as follows: fluorescent RNA oligo signal without MazF, dose response, counter-screen for MazEF activator project, biochemical, fluorescence, single-stranded RNase substrate (AID 588502). It is filed as functional. (In general: The purpose of a counterscreen is to sort out artefacts and off-target activity.)

Another experiment deals with Protein Rev (Human immunodeficiency virus type 1 group M subtype B (isolate HXB2)(HIV-1), UniProt P04618). Description: inhibitors of Rev binding to RRE RNA, dose response, biochemical, fluorescence polarization, HIV-1 (AID 434976). Details: species or system Human immunodeficiency virus 1.
For experiment [4], the target named is Induced myeloid leukemia cell differentiation protein Mcl-1 (Homo sapiens, UniProt Q07820). In kind it is functional.
Experiment [5] concerns the target T2, SUMO-activating enzyme (Homo sapiens, UniProt Q9UBT2). Description: inhibitors of in vitro SUMOylation cascade, primary screen, biochemical, HTRF, uHTS (AID 2006). It is filed as protein-complex assay. A general note: TR-FRET usually uses a lanthanide donor and a delayed reading to cut background.
The target of experiment [6] is T2, SUMO-activating enzyme. The experiment is described as follows: SUMOylation inhibitor hit validation, confirmation, SUMOylation inhibitor project, biochemical, AlphaScreen (AID 2018). In kind it is functional.
Experiment [7] in a line: inhibitors of Ran–importin-beta complex, dose response, biochemical, plate reader, dry powder (AID 493048). Details: species or system Homo sapiens.
For experiment [8], the target named is T3, Oxysterols receptor LXR-beta (Homo sapiens, UniProt P55055).
T3 sequence (P55055 whole entry): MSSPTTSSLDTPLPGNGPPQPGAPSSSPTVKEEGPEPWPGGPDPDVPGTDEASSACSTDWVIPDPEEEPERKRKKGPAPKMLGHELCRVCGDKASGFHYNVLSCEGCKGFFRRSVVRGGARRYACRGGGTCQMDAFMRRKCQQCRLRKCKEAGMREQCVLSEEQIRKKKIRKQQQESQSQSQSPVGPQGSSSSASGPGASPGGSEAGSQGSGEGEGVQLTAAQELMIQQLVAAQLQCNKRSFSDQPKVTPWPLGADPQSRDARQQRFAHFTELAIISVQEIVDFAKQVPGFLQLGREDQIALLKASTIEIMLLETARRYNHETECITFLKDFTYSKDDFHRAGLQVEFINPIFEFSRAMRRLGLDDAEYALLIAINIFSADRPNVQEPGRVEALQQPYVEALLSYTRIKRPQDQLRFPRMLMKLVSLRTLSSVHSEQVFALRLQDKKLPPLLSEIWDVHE
Description: LXR agonists, Gal4 luciferase reporter, dose response, counter-screen for ssDAF-12 agonist project, cell-based, luminescence, HEK293, S. stercoralis campaign (AID 720737). It is filed as functional. The note with it: read-out: IC50 (the source's name).

Experiment [9] in a line: Shn3 3'UTR reporter inhibitors, dose response, cell-based, Clone20 osteoblasts, firefly luciferase, cherry-picked (AID 624132).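 Note: firefly luciferase luminescence from reporter carrying the Shn3 3'UTR in osteoblasts.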 It is filed as functional.
The nature of experiment [10]: HeLa cell cytotoxicity, dose response, cytotoxicity control for MgcRacGAP inhibitor project (AID 624300). In kind it is functional.
The nature of experiment [11]: Luminescence-based cell-based high throughput dose response assay to identify activators of the DAF-12 from the parasite S. stercoralis (ssDAF-12). In kind it is functional.
Experiment [12] deals with T4, Histone-lysine N-methyltransferase NSD2 (Homo sapiens, UniProt O96028).
T4 sequence (O96028 whole entry): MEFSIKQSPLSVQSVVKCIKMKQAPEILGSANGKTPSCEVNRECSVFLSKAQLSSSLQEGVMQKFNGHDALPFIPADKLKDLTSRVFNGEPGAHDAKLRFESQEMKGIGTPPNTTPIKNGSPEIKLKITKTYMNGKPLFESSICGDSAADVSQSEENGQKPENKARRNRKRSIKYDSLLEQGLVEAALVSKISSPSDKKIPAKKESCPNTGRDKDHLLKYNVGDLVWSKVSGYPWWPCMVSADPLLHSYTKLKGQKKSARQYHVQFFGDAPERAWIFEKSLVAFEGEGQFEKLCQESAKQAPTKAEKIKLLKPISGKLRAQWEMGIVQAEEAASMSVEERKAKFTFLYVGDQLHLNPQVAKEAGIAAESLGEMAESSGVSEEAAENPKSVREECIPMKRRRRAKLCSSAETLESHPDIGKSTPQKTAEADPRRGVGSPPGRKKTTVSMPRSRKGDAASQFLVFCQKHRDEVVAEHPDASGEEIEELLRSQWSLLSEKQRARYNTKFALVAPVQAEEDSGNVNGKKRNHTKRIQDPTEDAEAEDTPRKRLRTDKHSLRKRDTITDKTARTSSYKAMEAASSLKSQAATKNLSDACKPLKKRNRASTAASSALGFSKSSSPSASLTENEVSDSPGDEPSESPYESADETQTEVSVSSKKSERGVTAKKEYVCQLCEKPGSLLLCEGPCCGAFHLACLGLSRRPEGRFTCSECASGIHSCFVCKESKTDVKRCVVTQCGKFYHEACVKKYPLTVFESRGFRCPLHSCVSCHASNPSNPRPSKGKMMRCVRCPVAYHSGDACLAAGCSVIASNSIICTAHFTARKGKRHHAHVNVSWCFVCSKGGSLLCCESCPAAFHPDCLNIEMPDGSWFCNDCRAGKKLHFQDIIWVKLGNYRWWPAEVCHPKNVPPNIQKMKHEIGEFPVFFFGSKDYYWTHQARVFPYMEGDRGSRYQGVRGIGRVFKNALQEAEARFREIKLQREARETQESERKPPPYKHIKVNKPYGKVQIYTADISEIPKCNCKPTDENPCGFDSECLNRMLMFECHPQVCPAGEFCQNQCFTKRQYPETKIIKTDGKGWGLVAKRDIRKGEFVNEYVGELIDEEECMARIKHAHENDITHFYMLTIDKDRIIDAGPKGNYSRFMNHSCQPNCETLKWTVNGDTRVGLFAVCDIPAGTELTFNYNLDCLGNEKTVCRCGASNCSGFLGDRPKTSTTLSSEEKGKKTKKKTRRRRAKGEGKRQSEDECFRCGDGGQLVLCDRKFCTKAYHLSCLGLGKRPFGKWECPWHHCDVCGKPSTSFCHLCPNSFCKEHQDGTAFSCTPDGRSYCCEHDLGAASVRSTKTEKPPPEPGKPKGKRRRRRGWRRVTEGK
In kind it is biochemical.

The target of a further experiment is Paired box protein Pax-8 (Homo sapiens, UniProt Q06710). The experiment is described as follows: inhibitors of PAX8-driven TPO luciferase reporter, dose response, RMG-I cells, cherry-pick (AID 687027).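 Note: luciferase reporter driven by Pax8 target thyroperoxidase promoter measured by SteadyGlo luminescence.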 In kind it is functional, cell-based.
Experiment [13] is described as follows: HepG2 cell cytotoxicity, dose response, cytotoxicity control for Shn3 inhibitor project, CellTiter-Glo, cherry-picked (AID 624134). It is filed as functional, cell-based.
Experiment [14] is described as follows: control 3'UTR Renilla luciferase suppression, dose response, counter-screen for Shn3 inhibitor project, cell-based, Clone20-Shn3RL, cherry-picked (AID 624133). In kind it is functional.
The target in experiment [15] is T5, DNA repair protein RAD52 homolog (Homo sapiens, UniProt P43351).
T5 sequence (P43351 whole entry): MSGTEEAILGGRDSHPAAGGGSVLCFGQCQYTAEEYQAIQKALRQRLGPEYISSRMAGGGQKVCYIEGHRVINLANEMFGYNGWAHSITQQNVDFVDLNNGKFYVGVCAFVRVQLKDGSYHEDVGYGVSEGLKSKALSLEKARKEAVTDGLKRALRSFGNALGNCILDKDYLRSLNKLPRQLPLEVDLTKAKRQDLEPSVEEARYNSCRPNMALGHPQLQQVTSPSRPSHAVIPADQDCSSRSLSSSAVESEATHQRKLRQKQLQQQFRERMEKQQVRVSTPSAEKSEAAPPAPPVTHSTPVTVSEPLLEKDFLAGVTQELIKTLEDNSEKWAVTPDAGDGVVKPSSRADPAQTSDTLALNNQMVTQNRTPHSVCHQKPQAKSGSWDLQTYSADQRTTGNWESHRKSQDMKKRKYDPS
In kind it is functional, biochemical.

The nature of experiment [16]: Cytotoxicity screening for potential Inhibitors of Bacterial Capsule Biogenesis. [Related pubchem assays (depositor defined):AID488970]. In kind it is functional.
Experiment [17] has as its target T6, Rac GTPase-activating protein 1 (Homo sapiens, UniProt Q9H0H5).
T6 sequence (Q9H0H5 whole entry): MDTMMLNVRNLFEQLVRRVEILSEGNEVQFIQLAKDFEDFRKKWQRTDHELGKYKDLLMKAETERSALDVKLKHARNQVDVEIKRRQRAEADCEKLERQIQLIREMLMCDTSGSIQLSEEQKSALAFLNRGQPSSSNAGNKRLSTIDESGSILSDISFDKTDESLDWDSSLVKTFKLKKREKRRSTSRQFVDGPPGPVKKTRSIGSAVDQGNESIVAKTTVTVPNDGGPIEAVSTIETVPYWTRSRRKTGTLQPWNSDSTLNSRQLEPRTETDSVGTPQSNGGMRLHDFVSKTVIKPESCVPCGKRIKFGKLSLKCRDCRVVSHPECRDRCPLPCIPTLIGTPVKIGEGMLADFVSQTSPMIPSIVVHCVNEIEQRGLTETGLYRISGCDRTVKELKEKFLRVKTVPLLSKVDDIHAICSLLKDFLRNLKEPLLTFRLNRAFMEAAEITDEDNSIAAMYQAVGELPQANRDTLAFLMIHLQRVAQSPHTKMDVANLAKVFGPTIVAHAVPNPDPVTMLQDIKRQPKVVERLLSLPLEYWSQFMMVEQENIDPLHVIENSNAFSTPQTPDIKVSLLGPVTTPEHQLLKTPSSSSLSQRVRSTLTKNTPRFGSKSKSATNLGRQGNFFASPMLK
The experiment is described as follows: MgcRacGAP GTPase-activating activity inhibitors, confirmation, biochemical, ADP Hunter fluorescence, primary and confirmatory (AID 624330). It is filed as functional.

For experiment [18], the target named is T7, Mannose-6-phosphate isomerase (Homo sapiens, UniProt P34949).
T7 sequence (P34949 whole entry): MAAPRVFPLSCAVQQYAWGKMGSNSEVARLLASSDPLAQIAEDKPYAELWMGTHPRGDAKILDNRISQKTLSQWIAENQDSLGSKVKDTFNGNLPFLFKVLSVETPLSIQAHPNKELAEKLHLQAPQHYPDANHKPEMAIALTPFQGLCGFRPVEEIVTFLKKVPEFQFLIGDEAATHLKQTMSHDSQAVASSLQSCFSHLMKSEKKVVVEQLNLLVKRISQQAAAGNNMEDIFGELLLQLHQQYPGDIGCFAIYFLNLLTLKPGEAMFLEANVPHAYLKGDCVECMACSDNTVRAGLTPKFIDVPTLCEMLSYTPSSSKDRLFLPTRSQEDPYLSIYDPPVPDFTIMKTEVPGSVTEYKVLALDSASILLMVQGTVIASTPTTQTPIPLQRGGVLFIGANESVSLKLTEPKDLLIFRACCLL
Description: PMI enzyme inhibitors, confirmation, biochemical, fluorescence intensity (AID 1535).

The target in the next experiment is Phosphomannomutase 2 (Homo sapiens, UniProt O15305). Description: Counter screen SAR assay for PMM2 inhibitors via a fluorescence intensity assay. [Related pubchem assays (depositor defined):AID1545, AID1574].
For experiment [19], the target named is Phosphoethanolamine/phosphocholine phosphatase (Homo sapiens, UniProt Q8TCT1). The experiment is described as follows: SAR assay for compounds that inhibit PHOSPHO1. [Related pubchem assays (depositor defined):AID1545, AID1565, AID1574].

Structures are written as SMILES. Activity calls are given as the source filed them.

T2 sequence (Q9UBE0 whole entry): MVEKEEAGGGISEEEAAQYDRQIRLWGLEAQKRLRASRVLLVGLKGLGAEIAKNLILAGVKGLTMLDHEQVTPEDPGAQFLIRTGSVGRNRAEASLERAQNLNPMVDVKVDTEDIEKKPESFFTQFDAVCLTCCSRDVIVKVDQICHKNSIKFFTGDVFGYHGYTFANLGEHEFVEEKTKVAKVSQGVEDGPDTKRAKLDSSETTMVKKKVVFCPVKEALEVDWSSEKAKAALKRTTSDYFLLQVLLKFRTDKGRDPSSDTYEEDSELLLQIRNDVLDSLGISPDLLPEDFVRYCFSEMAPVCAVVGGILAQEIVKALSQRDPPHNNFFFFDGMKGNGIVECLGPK
T2 sequence (Q9UBT2 whole entry): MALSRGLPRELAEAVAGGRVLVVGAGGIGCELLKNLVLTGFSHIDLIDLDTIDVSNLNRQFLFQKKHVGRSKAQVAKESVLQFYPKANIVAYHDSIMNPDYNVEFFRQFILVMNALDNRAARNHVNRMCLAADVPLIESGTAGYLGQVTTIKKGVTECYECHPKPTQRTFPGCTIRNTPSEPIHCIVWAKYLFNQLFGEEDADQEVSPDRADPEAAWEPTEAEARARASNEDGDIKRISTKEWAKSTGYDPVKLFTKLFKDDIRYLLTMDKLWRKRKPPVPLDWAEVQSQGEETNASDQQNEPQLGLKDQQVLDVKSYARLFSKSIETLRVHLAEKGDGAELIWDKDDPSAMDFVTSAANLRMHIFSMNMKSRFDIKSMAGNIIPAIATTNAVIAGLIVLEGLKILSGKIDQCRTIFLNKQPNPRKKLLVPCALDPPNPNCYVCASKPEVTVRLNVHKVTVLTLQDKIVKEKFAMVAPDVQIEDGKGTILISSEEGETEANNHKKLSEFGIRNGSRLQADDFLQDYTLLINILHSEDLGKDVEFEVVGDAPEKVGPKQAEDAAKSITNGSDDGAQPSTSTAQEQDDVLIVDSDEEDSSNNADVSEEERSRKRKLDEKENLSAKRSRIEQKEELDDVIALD
Chain of Phosphomannomutase 2 (O15305 whole entry): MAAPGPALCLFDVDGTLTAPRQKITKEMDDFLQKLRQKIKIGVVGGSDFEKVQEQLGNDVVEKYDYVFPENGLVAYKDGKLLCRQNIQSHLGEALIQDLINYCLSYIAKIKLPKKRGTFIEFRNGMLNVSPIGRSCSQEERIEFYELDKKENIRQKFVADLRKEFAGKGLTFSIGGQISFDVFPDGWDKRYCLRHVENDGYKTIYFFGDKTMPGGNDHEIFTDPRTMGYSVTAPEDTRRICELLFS
Chain of Paired box protein Pax-8 (Q06710 whole entry): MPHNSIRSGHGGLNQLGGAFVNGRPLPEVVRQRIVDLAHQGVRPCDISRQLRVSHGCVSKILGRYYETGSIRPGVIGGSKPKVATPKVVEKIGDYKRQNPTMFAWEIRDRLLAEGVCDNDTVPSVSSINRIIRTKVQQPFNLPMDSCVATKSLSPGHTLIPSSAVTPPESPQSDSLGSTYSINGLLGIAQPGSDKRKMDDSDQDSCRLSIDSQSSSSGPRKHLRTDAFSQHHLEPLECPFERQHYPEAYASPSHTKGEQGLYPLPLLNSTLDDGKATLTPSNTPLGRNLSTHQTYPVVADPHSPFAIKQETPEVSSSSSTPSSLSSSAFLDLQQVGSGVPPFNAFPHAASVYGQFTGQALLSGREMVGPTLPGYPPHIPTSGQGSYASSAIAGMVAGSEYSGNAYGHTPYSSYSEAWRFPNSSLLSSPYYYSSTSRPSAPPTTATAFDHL
Chain of Phosphoethanolamine/phosphocholine phosphatase (Q8TCT1 whole entry): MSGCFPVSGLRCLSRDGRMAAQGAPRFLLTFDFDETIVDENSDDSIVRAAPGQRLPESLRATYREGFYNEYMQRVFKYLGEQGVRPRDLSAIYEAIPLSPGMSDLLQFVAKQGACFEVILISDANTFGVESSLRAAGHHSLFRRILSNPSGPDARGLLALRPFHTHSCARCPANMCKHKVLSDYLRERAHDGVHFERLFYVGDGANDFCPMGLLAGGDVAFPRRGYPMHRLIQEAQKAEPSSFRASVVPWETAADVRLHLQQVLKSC
Chain of Induced myeloid leukemia cell differentiation protein Mcl-1 (Q07820 whole entry): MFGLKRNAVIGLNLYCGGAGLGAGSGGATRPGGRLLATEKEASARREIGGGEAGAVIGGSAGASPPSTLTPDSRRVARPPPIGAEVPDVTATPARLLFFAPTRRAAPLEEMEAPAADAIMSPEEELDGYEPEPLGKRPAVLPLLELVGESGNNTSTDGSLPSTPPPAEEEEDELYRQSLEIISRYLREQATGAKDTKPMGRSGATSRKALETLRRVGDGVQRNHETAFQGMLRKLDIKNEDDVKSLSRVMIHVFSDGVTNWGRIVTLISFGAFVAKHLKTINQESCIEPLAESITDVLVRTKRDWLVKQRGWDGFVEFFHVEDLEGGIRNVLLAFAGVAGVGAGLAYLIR
Chain of Protein Rev (P04618 whole entry): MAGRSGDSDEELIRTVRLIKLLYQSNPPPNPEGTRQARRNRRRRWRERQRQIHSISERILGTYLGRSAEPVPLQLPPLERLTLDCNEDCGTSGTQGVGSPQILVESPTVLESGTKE
Chain of Female germline-specific tumor suppressor gld-1 (Q17339 whole entry): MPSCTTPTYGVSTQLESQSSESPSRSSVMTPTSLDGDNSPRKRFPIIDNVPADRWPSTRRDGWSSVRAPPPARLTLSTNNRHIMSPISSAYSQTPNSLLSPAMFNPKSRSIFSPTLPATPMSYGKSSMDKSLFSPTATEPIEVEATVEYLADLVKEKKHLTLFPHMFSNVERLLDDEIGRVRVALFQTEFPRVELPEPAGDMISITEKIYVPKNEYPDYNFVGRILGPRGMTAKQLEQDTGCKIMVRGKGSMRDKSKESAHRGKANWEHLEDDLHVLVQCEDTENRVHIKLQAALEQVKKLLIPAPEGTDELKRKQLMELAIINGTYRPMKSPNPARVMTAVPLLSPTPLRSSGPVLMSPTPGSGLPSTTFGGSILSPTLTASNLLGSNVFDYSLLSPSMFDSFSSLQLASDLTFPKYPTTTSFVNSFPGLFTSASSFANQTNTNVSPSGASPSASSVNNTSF

On to `COc1ccc(N2CCCC2)c(NC(=O)c2ccc(Br)o2)c1`, for which the IC50 in experiment [1] is 21.3 µM (inactive); at Protein Rev it was > 75.4 µM (not active). For the same compound, the EC50 in [2] and in experiment [3] was > 99 µM (inactive) throughout.
For the compound `Cc1cc(=O)oc2cc(OCc3ccc(C(=O)OCC(=O)Nc4ccc(N(C)C)cc4)cc3)ccc12`, the IC50 was 6.17 µM (active) in experiment [4], 22.1 µM (active) at SUMO-activating enzyme [5] and 36.3 µM (active) on SUMO-activating enzyme [6].
Consider `Cc1ccc(S(=O)(=O)c2cc3c(=O)n4cccc(C)c4nc3n(C3CCCCC3)c2=N)cc1`, for which the AC50 in experiment [7] was 410 µM (active).
As for `CCN(CC)CCCNc1[nH]c2ccccc2c2nc3ccc(OC)cc3c1-2`, in experiment [8], the EC50 was > 67.5 µM (inactive). Further, the half-maximal activity concentration (AC50) is 12.3 µM (active) in experiment [9]; > 20 µM (inactive) in experiment [12]; 6.91 µM (active) on Paired box protein Pax-8; 4.9 µM (active) in experiment [13]; 11.6 µM (active) in [14]; < 0.15 µM (active) in [15]. The CC50 in experiment [10] is 15.1 µM (active); in [16], 1.41 µM (active). Also, the IC50 in experiment [11] was > 67.5 µM (inactive); in experiment [17], 31.7 µM (active).
As for `O=c1c2ccccc2sn1-c1ccc(F)c(Cl)c1`, the IC50 is > 50 µM (inactive) in [18], > 100 µM (inactive) at Phosphomannomutase 2 and 1.79 µM (inactive) in [19].
